Measurements published in patent US5428059A, “Benzopyran derivatives and an anti-allergic agent possessing the same as the active ingredient” (Dainippon Ink & Chemicals, Inc., priority 1991, dated 1995).

Experiments:
[1] = test system: Hartley-type male guinea pigs; assay: Guinea Pig Homogeneous Skin Passive Anaphylaxis Assay (PCA reaction); assay type: in vivo, guinea pig (Hartley-type); details: for inhibition in vivo at 10 mg/kg: 10 mg/kg oral
How it was run: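 Inhibition % is derived from Evans Blue leakage area (mm^2, product of spot diameters) read 30 min after i.v. OVA/dye challenge. Beforehand, male Hartley guinea pigs (250~300 g) were passively sensitized intradermally with 120-fold-diluted anti-OVA serum and, after 48 h, received test compound 10 mg/kg p.o.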

[2] = Mouse Acute Toxicity Assay (oral, 7 days observation); details: in vivo, ICR-type male mice, single forced oral administration 1000 and 2000 mg/kg, estimated from survival ratio
Description: Mouse Acute Toxicity Assay
The present Example was carried out in order to confirm the safety of the novel compound according to the present invention. In the following the assay method used will be explained.
Assay method: After ICR-type male mice (body weight=20~25 g) were fasted for 16 hours, each substance to be tested was forcibly administered orally at 1000 mg/kg and 2000 mg/kg to groups of five mice, using a esophageal sound. After administration, the mice were kept in cages for seven days, following which observations were made on the general conditions and existence of dead animals. From the survival ratio of the mice at the end of the observation, the lethal dose 50 (LD50) was estimated.
The results of the mouse acute toxicity assay are recorded in Tables 1 and 2.

[3] = oral administration; cited from earlier work
mice = details: Tranilast, cited from earlier work
[4] = Cavia porcellus, 48 h after sensitization, read-out: Allergic reaction inhibitory index (%)

Structure (SMILES) | inhibition in vivo at 10 mg/kg [1, 4] [%] | further results
CC(C)=CCC/C(C)=C/COc1c(O)c2c(OC/C=C(\C)CCC=C(C)C)cccc2oc1=O [Compound 253, 3,5-(digeranyloxy)-4-hydroxy-2H-1-benzopyran-2-one] | 33 | –
CC(C)=CCC/C(C)=C/COc1cccc2oc(=O)c(O)c(OC/C=C(\C)CCC=C(C)C)c12 [Compound 254, 3-hydroxy-4,5-(digeranyloxy)-2H-1-benzopyran-2-one] | 30 | –
CC(=O)Oc1c(OC/C=C(\C)CCC=C(C)C)c(=O)oc2cccc(OC/C=C(\C)CCC=C(C)C)c12 [Compound 255, 3,5-(digeranyloxy)-4-(acetoxy)-2H-1-benzopyran-2-one] | 33 | –
CC(C)=CCC/C(C)=C/COc1cccc2oc(=O)c(OC(=O)c3ccccc3)c(OC/C=C(\C)CCC=C(C)C)c12 [Compound 256, 3-(benzoyloxy)-4,5-(digeranyloxy)-2H-1-benzopyran-2-one] | 30 | –
COc1c(OC/C=C(\C)CCC=C(C)C)c(=O)oc2cccc(OC/C=C(\C)CCC=C(C)C)c12 [Compound 257, 3,5-(digeranyloxy)-4-(methoxy)-2H-1-benzopyran-2-one] | 31 | –
CC(C)=CCC/C(C)=C/COc1cccc2oc(=O)c(OC(C)C)c(OC/C=C(\C)CCC=C(C)C)c12 [Compound 258, 3-(isopropoxy)-4,5-(digeranyloxy)-2H-1-benzopyran-2-one] | 32 | –
O=C(Oc1c(O)c2cc(O)ccc2oc1=O)c1ccccc1 [Compound 262, 3-(benzoyloxy)-4,6-(dihydroxy)-2H-1-benzopyran-2-one] | 30 | –
O=c1oc2ccc(O)cc2c(O)c1O [Compound 263, 3,4,6-trihydroxy-2H-1-benzopyran-2-one] | 42 | –
CC(=O)Oc1c(O)c2cc(O)ccc2oc1=O [Compound 264, 3-(acetoxy)-4,6-(dihydroxy)-2H-1-benzopyran-2-one] | 36 | –
COc1c(O)c2cc(O)ccc2oc1=O [Compound 265, 3-(methoxy)-4,6-(dihydroxy)-2H-1-benzopyran-2-one] | 37 | –
CCCCCCCCCCOc1c(O)c2cc(O)ccc2oc1=O [Compound 266, 3-(decyloxy)-4,6-(dihydroxy)-2H-1-benzopyran-2-one] | 33 | –
COc1c(O)c(=O)oc2ccc(O)cc12 [Compound 267, 3,6-(dihydroxy)-4-(methoxy-2H-1-benzopyran-2-one] | 34 | –
CCCCCCCCCCOc1c(O)c(=O)oc2ccc(O)cc12 [Compound 268, 3,6-(dihydroxy)-4-(decyloxy)-2H-1-benzopyran-2-one] | 33 | –
CC(C)=CCC/C(C)=C/COc1c(O)c2cc(O)ccc2oc1=O [Compound 269, 4,6-(dihydroxy)-3-(geranyloxy)-2H-1-benzopyran-2-one] | 33 | LD50 at 168 h [2]: > 1000 mg/kg
COc1c(O)c2cc(OC(C)=O)ccc2oc1=O [Compound 270, 3-(methoxy)-4-hydroxy-6-(acetoxy)-2H-1-benzopyran-2-one] | 35 | LD50 at 168 h [2]: > 2000 mg/kg
CC(=O)Oc1ccc2oc(=O)c(OC/C=C(\C)CCC=C(C)C)c(O)c2c1 [Compound 271, 3-(geranyloxy)-4-hydroxy-6-(acetoxy)-2H-1-benzopyran-2-one] | 33 | LD50 at 168 h [2]: > 1000 mg/kg
COc1ccc2oc(=O)c(O)c(O)c2c1 [Compound 272, 3,4-(dihydroxy)-6-(methoxy)-2H-1-benzopyran-2-one] | 30 | –
CCCCCCCCCCOc1ccc2oc(=O)c(O)c(O)c2c1 [Compound 273, 3,4-(dihydroxy)-6-(decyloxy)-2H-1-benzopyran-2-one] | 30 | –
CCCCCCCCCCOc1c(O)c2cc(OC)ccc2oc1=O [Compound 274] | 35 | –
CCCCCCCCCCOc1ccc2oc(=O)c(OC)c(O)c2c1 [Compound 275, 3-(methoxy)-4-(hydroxy)-6-(decyloxy)-2H-1-benzopyran-2-one] | 36 | –
CCCCCCCCCCOc1c(O)c(=O)oc2ccc(OC)cc12 [Compound 276, 3-(hydroxy)-4-(decyloxy)-6-(methoxy)-2H-1-benzopyran-2-one] | 34 | –
CCCCCCCCCCOc1ccc2oc(=O)c(O)c(OC)c2c1 [Compound 277, 3-(hydroxy)-4-(methoxy)-6-(decyloxy)-2H-1-benzopyran-2-one] | 35 | –
COc1ccc2oc(=O)c(OC(C)=O)c(O)c2c1 [Compound 278, 3-(acetoxy)-4-(hydroxy)-6-(methoxy)-2H-1-benzopyran-2-one] | 36 | –
CCCCCCCCCCOc1ccc2oc(=O)c(OC(C)=O)c(O)c2c1 [Compound 279, 3-(acetoxy)-4-(hydroxy)-6-(decyloxy)-2H-1-benzopyran-2-one] | 30 | –
CC(C)=CCC/C(C)=C/COc1ccc2oc(=O)c(O)c(O)c2c1 [Compound 280, 3,4-(dihydroxy)-6-(geranyloxy)-2H-1-benzopyran-2-one] | 35 | LD50 at 168 h [2]: > 1000 mg/kg
O=C(O)c1cc(=O)c2c(OCC(O)COc3cccc4oc(C(=O)O)cc(=O)c34)cccc2o1 [Disodium Cromoglicate] | – | absorption into the living body [3]: difficult to absorb
COc1ccc(/C=C/C(=O)Nc2ccccc2C(=O)O)cc1OC [Tranilast, reference compound] | – | inhibition in vivo at 100 mg/kg ([1]; Cavia porcellus, positive control, 100 mg/kg oral, 48 h after sensitization, read-out: Allergic reaction inhibitory index (%)): 52%; anti-allergic action, compounds of the invention (10 mg/kg) versus Tranilast (100 mg/kg) ([1]; oral): approximately equal to or less than the anti-allergic action exhibited by the compounds of the present invention; acute toxic value (LD50) (mice; background): 680 to 780 mg/kg; LD50 (mice; male mice): 780 mg/kg
